Measurements as given in article PMC6407204, “Oral administration of the cannabigerol derivative VCE-003.2 promotes subventricular zone neurogenesis and protects against mutant huntingtin-induced neurodegeneration” (Translational Neurodegeneration, 2019).

What was measured:
[1] = system: liver; assay: Hepatotoxicity of chronic administration, liver hematoxylin-eosin staining; type: in vivo; conditions: mouse, data not shown
Protocol: As VCE-003.2 was previously shown to exert a neuroprotective action in preclinical HD models, and considering its pro-neurogenic profile, we evaluated the pathophysiological impact and potential therapeutic value of VCE-003.2 after oral administration. Pharmacokinetic analyses were performed in rats after oral administration of VCE-003.2 (50 mg/kg) dissolved in sesame oil. Plasma VCE-003.2 levels peaked at 8 h (Tmax) and then slowly declined to basal levels. […] We also investigated some critical ADME/Tox parameters. […] We also determined the potential hepatotoxicity of chronic VCE-003.2 administration by hematoxylin-eosin staining. […] We also determined the impact of VCE-003.2 administration on peripheral biomarkers by quantifying the levels of cytokines and other soluble mediators.

[2] = system: R1 mouse embryonic stem (mES) cell line; assay: Mouse embryonic stem cell (R1) neural differentiation, CTIP2 and doublecortin immunofluorescence; type: cell-based; conditions: 500 nM during neural differentiation for 21 days, vs vehicle
Protocol: R1 mouse embryonic stem (mES) cell line was grown on gelatin 0.1%, in Knockout DMEM supplemented with 20% Knockout Serum Replacement, 1000 U ml-1 of LIF, 0.1 mM of non-essential amino acids, 2 mM ultraglutamine, 50 U ml-1 of penicillin and streptomycin and 0.1 mM of 2-mercaptoethanol. Cells were then differentiated at low density in Defined Default Medium (DDM) containing DMEM/F12 + GlutaMAX supplemented with N2 supplement (1×), 5 mM of Hepes Buffer, 0.1 mM of non-essential amino acids, 1 mM of sodium pyruvate, 2.5 mg ml-1 of AlbuMax-I, 30 mM of D-Glucose, 0.1 mM of non-essential amino acids, 0.1 mM of 2-mercaptoethanol, 50 U ml-1 of penicillin and streptomycin for 12 days. […]
Free floating coronal brain slices (30 μm) were processed as previously described. […] The lateral SVZ zone was delineated by using DAPI-counterstained cell nuclei, and analyses were performed in the upper dorsal tier, in which positively-labelled cells and immunoreactivity were quantified not beyond 100 μm of the SVZ. Confocal fluorescence images were acquired by using LAS-X software (Wetzlar, Germany) and SP8 microscope with 2 passes by Kalman filter, a 1024X1024 collection box, and pinhole AU 1. […] Cells were quantified within a 20 × 20 μm counting frame, which randomly sampled within a 122.8 × 68.9 μm counting grid. […]

[3] = Microsomal metabolic stability
Protocol: The final incubation volume was 25 μL. […] The reactions were stopped by the addition of 50 μL methanol containing internal standard at the appropriate time points. The incubation plates were centrifuged at 2500 rpm for 20 min at 4 °C to precipitate the protein. Following protein precipitation, the sample supernatants were analyzed using LC-MS/MS. From a plot of ln peak area ratio (compound peak area/internal standard peak area) against time, the gradient of the line was determined. Subsequently, half-life and intrinsic clearance was calculated using the equations below: Elimination rate constant (k) = (− gradient).

[4] = system: osteoblast differentiation; conditions: compared with full PPARγ-agonists; cited from earlier work

CCCCCC1=C(NCC)C(=O)C(CC=C(C)CCC=C(C)C)=C(O)C1=O [VCE-003.2, 2-(3,7-dimethyl-octa-2,6-dienyl)-6-ethylamino-3-hydroxy-5-pentyl-(1,4) benzoquinone]
hepatotoxicity, liver histology [1]: did not show any evidence of fibrosis, steatosis, vacuolization, ballooning or inflammation
doublecortin immunoreactivity [2]: increased
number of CTIP2-positive cells [2]: increased the number of CTIP2-positive cells
intrinsic clearance in vitro (in words) ([3]; human liver microsomes): rapid intrinsic clearance
half-life ([3]; human, microsomes, pH 7.4): 10.6 min
microsomal CLint ([3]; human, microsomes, pH 7.4): 131 µL/min/mg
interference with osteoblast differentiation [4]: does not interfere with osteoblast differentiation
